Measurements from patent publication US10377781B2, “Alkylidene phosphonate esters as p-glycoprotein inducers” (Council of Scientific & Industrial Research, priority 2014, dated 2019).
In brackets after ≈: the same amount, converted by molar mass. Entries after “also recorded” stand apart in the source; their conditions may differ. Like-named read-outs stand apart in the source and are kept apart here.

Legend:
[1] = Thermodynamic equilibrium solubility; assay type: physicochemical; settings: for solubility: 25 °C, thermodynamic from solid
Experimental: The compounds were first dissolved in methanol to prepare stock solutions (100 and 1000 μg/mL). Different concentrations of stock solutions were pipetted into the 96-well plates and the solvent was evaporated to ensure that solid drug was present in the beginning of the experiment. […] The plates were kept overnight for equilibration of drug in medium. Later, the plates were centrifuged at 3000 rpm for 15 min (Jouan centrifuge BR4i). Supernatant (50 μl) was pipetted into UV 96-well plates (Corning® 96 Well Clear Flat Bottom UV-Transparent Microplate) for analyses with plate reader (SpectraMax Plus384) at λmax of 350 nm. The analyses were performed in triplicate for each compound. The solubility curve of concentration (ng/mL) vs absorbance was plotted to find out saturation point and the corresponding concentration was noted.

[2] = test system: P-glycoprotein (Pgp) in LS-180 cells; assay: Pgp-induction assay, rhodamine123 (Rh123) cell exclusion method; assay type: cell-based; settings: for EC50: LS180 cells treated 48 h, Rh123 fluorescence vs concentration
Experimental: All synthesized compounds were screened for their ability to induce Pgp using rhodamine123 (Rh123) cell exclusion method. In this method, the Pgp function was evaluated in terms of rhodamine 123 (Rh123) accumulations and efflux. Briefly, the protocol used is as follows: Colorectal LS-180 cells [obtained from ECACC (European Collection of Cell Cultures) catalogue number: 87021202; passage number 52] were seeded at a density of 2×10^4 per well of 96 well plate and were allowed to grow for next 24 h. Cells were further incubated with the test compounds, and were diluted to a final concentration of 100 nM and rifampicin (standard) to a final concentration of 10 μM in complete media for 48 h. The final concentration of DMSO was kept at 0.1%. Drugs were removed and cells were incubated with HANKS buffer for 40 minutes before further incubation with HANKS buffer (containing 10 μM of Rh123 as a Pgp substrate) for 90 minutes. At the end of Rh123 treatment cells were washed four times with cold PBS followed by cell lysis for 1 h by using 200 μl of lysis buffer (0.1% Triton X-100 and 0.2 N NaOH). A total of 100 μl of lysate was used for reading fluorescence of Rh123 at 485 nm/529 nm. Samples were normalized by dividing fluorescence of each sample with total protein present in the lysate. For EC50 determination, different concentrations of compound were used to treat LS180 cells for 48 h. The EC50 value was determined by plotting fluoroscence of Rh123 against concentration of compound.

[3] = test system: p-glycoprotein expression in LS-180 cells; assay: Western blot analysis of Pgp expression; assay type: cell-based
Experimental: Protein was measured employing Bio-Rad protein assay kit using bovine serum albumin as standard. Proteins aliquots (70 μg) were resolved on SDS-PAGE and then electro transferred to PVDF membrane overnight at 4° C. at 30V. Nonspecific binding was blocked by incubation with 5% non-fat milk in Tris-buffered saline containing 0.1% Tween-20 (TBST) for 1 h at room temperature. The blots were probed with anti-Pgp antibody for 4 h and washed three times with TBST. Blot was then incubated with horseradish peroxidase conjugated antimouse secondary antibody for 1 h, washed again three times with TBST and signals detected using ECL plus chemiluminescence's kit on BioRad ChemiDoc XRS system.

rat PXR = target: T1, rat PXR (Rattus norvegicus, UniProt Q9R1A7); settings: cited from earlier work
T1 sequence (Q9R1A7 1-431): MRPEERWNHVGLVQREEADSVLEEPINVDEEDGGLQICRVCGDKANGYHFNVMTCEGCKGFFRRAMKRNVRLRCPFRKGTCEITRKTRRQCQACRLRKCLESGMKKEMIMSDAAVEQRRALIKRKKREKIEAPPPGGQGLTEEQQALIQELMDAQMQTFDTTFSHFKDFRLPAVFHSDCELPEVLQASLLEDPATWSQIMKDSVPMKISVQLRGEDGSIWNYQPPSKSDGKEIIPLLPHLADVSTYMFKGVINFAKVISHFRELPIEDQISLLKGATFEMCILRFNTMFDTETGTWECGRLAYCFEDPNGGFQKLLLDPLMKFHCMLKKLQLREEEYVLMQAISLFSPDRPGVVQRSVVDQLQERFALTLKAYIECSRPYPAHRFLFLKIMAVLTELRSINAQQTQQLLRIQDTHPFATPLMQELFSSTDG

HMG-Co A reductase = settings: HepG2 (hepatocellular carcinoma) cells; read-out: IC50, reduction of HMG-Co A reductase activity; cited from earlier work
CYP3A4 = settings: rat hepatocytes; cited from earlier work
rabbit PXR = target: T2, rabbit PXR (Oryctolagus cuniculus, UniProt Q9TU02); settings: read-out: EC50, activation of rabbit PXR; cited from earlier work
T2 sequence (Q9TU02 1-411): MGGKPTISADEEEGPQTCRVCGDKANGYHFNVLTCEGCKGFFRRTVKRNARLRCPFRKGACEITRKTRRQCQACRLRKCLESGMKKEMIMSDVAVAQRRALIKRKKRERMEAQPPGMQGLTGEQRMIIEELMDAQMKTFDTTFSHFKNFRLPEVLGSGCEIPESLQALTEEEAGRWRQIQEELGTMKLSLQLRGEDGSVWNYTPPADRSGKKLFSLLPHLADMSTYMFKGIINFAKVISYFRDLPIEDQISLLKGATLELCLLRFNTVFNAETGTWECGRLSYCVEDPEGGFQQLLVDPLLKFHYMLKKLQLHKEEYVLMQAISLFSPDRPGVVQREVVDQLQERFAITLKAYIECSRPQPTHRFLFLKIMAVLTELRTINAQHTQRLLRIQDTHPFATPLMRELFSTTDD

mouse PXR = target: T3, mouse PXR (Mus musculus, UniProt O54915); settings: cited from earlier work
T3 sequence (O54915 1-431): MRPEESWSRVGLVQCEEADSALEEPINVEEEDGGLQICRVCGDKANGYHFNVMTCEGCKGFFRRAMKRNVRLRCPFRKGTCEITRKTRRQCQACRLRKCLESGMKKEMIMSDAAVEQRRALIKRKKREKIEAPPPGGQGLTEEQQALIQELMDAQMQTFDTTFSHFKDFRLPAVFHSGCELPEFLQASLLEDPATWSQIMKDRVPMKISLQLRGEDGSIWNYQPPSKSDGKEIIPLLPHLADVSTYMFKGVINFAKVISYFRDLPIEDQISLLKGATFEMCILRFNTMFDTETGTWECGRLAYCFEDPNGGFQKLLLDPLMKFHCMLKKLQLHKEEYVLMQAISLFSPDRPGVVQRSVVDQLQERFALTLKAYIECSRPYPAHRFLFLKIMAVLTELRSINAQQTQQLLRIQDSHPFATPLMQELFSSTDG

SMILES | Solubility, PBS ([1]; phosphate buffer saline (PBS)) [µg/mL] | Solubility, SGF ([1]; simulated gastric fluid (SGF)) [µg/mL] | Solubility, SIF ([1]; simulated intestinal fluid (SIF)) [µg/mL] | solubility in words ([1]; water and biological fluids) | Solubility, Water ([1]; water, 25±1° C.) [µg/mL] | EC50 [2] [nM] | Pgp induction as decrease in % intracellular levels of rhodamine 123 ([2]; LS-180 cells, test compounds 100 nM, 48 h) | fold difference of EC50 versus SR12813 (1a) ([2]; Pgp induction EC50, LS180 cells) [fold] | p-glycoprotein expression (Western blot) [3] | activation of rat PXR (rat PXR) | solubility ([1]; water, 25±1° C., read-out: Solubility, Water) [µg/mL] | solubility ([1]; phosphate buffer saline (PBS), aqueous buffer, read-out: Solubility, PBS) [µg/mL] | solubility ([1]; simulated gastric fluid (SGF), simulated gastric fluid, read-out: Solubility, SGF) [µg/mL] | solubility ([1]; simulated intestinal fluid (SIF), fassgf or other biorelevant, read-out: Solubility, SIF) [µg/mL] | IC50 (HMG-Co A reductase) [nM] | CYP3A4 protein levels (CYP3A4) | EC50 (rabbit PXR) [nM] | activation of mouse PXR (mouse PXR)
CCOP(=O)(OCC)C(=Cc1c2ccccc2cc2ccccc12)P(=O)(OCC)OCC [Compound 1l, Tetraethyl 2-(anthracene-10-yl) ethene-1,1-diyldiphosphonate] | >1500 | >1500 | >1500 | optimal solubility | 400 (≈ 840 µM) | 0.9 | decreased; also recorded: promising induction of p-glycoprotein | 2 | induces p-glycoprotein expression |  |  |  |  |  |  |  |  | 
CCOP(=O)(OCC)C(=Cc1cc(C(C)(C)C)c(O)c(C(C)(C)C)c1)P(=O)(OCC)OCC [Compound 1a] |  |  |  |  |  | 2.04 |  |  |  | very weak activator | 200 (≈ 396 µM) | 200 (≈ 396 µM) | 200 (≈ 396 µM) | 200 (≈ 396 µM) | 850 | increase CYP3A4 protein levels | ~700 | very weak activator
